Measured values published in US9949948B2, “Artemisinin and its derivatives for use in the treatment of trauma haemorrhage and associated conditions” (Queen Mary University of London, priority 2011, dated 2018).

Key:
[1] = test system: HS-rats; assay: Organ injury and dysfunction induced by trauma haemorrhage (haemorrhagic shock) in the rat; assay type: in vivo, Wistar rats
Protocol: Thirty-five male Wistar rats (271±5 g) were anaesthetised with sodium thiopentone (120 mg/kg i.p., LINK Pharmaceuticals Ltd., West Sussex, UK) and anaesthesia was maintained by supplementary injections (˜10 mg/kg i.v.) of sodium thiopentone as and when required. The animals were placed onto a thermostatically controlled heating mat (Harvard Apparatus Ltd., Kent, UK) and body temperature was maintained at 37±1° C. by means of a rectal probe attached to a homeothermic blanket. A tracheotomy was performed by inserting into the lumen of the trachea a small length of polyethylene tubing [Internal Diameter (ID) 1.67 mm, Portex, Kent, UK] to maintain airway patency and facilitate spontaneous respiration.
The right carotid artery was cannulated (ID 0.58 mm, Portex) to facilitate the withdrawal of blood using a heparinised syringe. The right jugular vein was cannulated (ID 0.40 mm, Portex) for the administration of Ringer's Lactate (RL), shed blood, test compounds and/or vehicle. The bladder was also cannulated (ID 0.76 mm, Portex) for the collection of urine. Upon completion of the surgical procedure, cardiovascular parameters were allowed to stabilise for a period of 15 min.
After the stabilisation period, blood was withdrawn via the cannula inserted in the right carotid artery in order to achieve a fall in MAP to 35±5 mmHg within 10 min. From this point onwards, MAP was maintained at 35±5 mmHg for a period of 90 min either by further withdrawal of blood during the compensation phase (MAP rises following blood withdrawal due to sympathetic response) or administration of Ringer's Lactate i.v. during the decompensation phase (animals are unable to increase and maintain high MAP). The average volume of blood withdrawn during haemorrhage was 9.8±0.2 ml (n=31, across all haemorrhaged groups). At 90 min after initiation of haemorrhage, resuscitation was performed with 20 ml/kg Ringer's Lactate i.v. over a period of 10 min and then half the shed blood mixed with 100 u/ml heparinised saline i.v. over a period of 50 min. At the end of 1 h resuscitation, an i.v. infusion of Ringer's Lactate (1.5 ml/kg/h) was started as fluid replacement and maintained for a further 3 h.
Four hours after the onset of resuscitation, 1.2 ml blood was collected from the right carotid artery and decanted into serum gel tubes (Sarstedt, Numbrecht, Germany), after which the heart was removed to terminate the experiment. The samples were centrifuged (9900 rpm for 3 min) to separate serum from which urea, creatinine, aspartate aminotransferase (AST), alanine aminotransferase (ALT) and creatinine kinase (CK) were measured within 24 hours (Idexx Laboratories Ltd., West Yorkshire, UK). Urine collected during the last 3 h of the experiment was analysed for creatinine levels in order to estimate creatinine clearance as an indicator of glomerular dysfunction and was calculated as follows: […]
Sham-operated rats underwent identical surgical procedures but without haemorrhage or resuscitation.

[2] = test system: mice injected with LPS; assay: Organ injury and dysfunction in a mouse model of septic shock (LPS); assay type: in vivo, C57BL/6 mice; settings: 10 mg/kg, all three treatment groups (i.p. 1 h post-LPS, i.v. 1 h post-LPS, i.p. 30 min pre-LPS)
Protocol: Twenty-six male C57BL/6 mice (Harlan Laboratories, Wyton, UK), weighing 20-30 g were used for this experiment. At time point 0 (t=0 h) mice received either LPS (9 mg/kg in 5 ml/kg 0.9% NaCl) or vehicle (5 ml/kg 0.9% NaCl) intraperitoneally (i.p.). Mice were then sacrificed 16-18 h after the injection of LPS by induction of anaesthesia with ketamine (100 mg/ml)/xylazine (20 mg/ml) solution in a 2:1 ratio and removal of the heart.
At the end of the experiment, 0.7 ml blood was collected from the right carotid artery and decanted into serum gel tubes (Sarstedt, Numbrecht, Germany). The samples were centrifuged (9900 rpm for 3 min) to separate serum from which urea, creatinine and alanine aminotransferase (ALT) were measured within 24 hours (Idexx Laboratories Ltd., West Yorkshire, UK).
Share-operated nice received saline (5 ml/kg i.p.) instead of LPS.

[3] = 1 mg/kg i.v. on resuscitation, P>0.05
[4] = both 3 and 10 mg/kg i.v. on resuscitation, P<0.05

## C[C@H]1[C@H](OC(=O)CCC(=O)O)O[C@@H]2O[C@@]3(C)CC[C@H]4[C@H](C)CC[C@@H]1[C@@]24OO3 [artesunate]
[1]; [3]
  rise in serum ALT: no significant effect
  rise in serum AST: no significant effect
  rise in serum creatinine: no significant effect
  rise in serum creatinine kinase: no significant effect
  rise in serum urea: no significant effect
[1]; 3 mg/kg i.v. on resuscitation, 4 h after onset of resuscitation, P<0.05 vs HS-rats
  rise in serum urea: significantly attenuated
[1]; 3 mg/kg i.v. on resuscitation, P<0.005 vs HS-rats
  rise in serum creatinine: significantly attenuated
[1]; 10 mg/kg i.v. on resuscitation, P<0.005
  rise in serum creatinine: significantly attenuated
[1]; 1, 3 or 10 mg/kg i.v. on resuscitation, P>0.05
  decline in MAP caused by haemorrhage during the resuscitation phase: failed to attenuate
[1]; both 3 and 10 mg/kg i.v. on resuscitation, P<0.005
  rise in serum ALT: significantly attenuated
[1]; [4]
  rise in serum AST: significantly attenuated
  rise in serum creatinine kinase: significantly attenuated
[2]
  rise in serum ALT: no significant effect
[2]; P>0.05
  rise in serum creatinine: no significant effect
  rise in serum urea: no significant effect
